Measured values as given in patent US20250101023A1, “HETEROARYL DERIVATIVE AND USES THEREOF” (IUCF-HYU (INDUSTRY-UNIVERSITY COOPERATION FOUNDATION …, priority 2022, published 2025).

Legend:
[1] = tested on: Pol II CTD (Ser2) phosphorylation; experiment: Western blot, Pol II CTD Ser2 phosphorylation; assay type: cell-based; details: SK-Br3 and HCC1954 cell lines, 40 and 200 nM, 2 hours
CDK9/cyclin K = CDK9/cyclin K (Homo sapiens (Human), UniProt P50750); experiment: Kinome-wide profiling; assay type: biochemical; details: read-out: % Residual Activity (mean)
Sequence of CDK9/cyclin K (P50750 whole entry): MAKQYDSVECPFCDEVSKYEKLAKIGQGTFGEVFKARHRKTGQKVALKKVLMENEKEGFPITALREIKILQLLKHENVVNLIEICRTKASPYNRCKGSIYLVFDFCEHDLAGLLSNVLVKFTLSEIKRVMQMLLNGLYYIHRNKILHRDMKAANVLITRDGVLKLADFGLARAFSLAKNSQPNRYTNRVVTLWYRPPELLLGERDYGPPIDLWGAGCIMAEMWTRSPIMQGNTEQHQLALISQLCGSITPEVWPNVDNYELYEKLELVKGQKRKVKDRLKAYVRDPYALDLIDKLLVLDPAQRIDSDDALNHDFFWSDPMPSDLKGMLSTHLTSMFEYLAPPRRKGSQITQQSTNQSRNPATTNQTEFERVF
Sequence of CDK9/cyclin K (O75909 whole entry partner): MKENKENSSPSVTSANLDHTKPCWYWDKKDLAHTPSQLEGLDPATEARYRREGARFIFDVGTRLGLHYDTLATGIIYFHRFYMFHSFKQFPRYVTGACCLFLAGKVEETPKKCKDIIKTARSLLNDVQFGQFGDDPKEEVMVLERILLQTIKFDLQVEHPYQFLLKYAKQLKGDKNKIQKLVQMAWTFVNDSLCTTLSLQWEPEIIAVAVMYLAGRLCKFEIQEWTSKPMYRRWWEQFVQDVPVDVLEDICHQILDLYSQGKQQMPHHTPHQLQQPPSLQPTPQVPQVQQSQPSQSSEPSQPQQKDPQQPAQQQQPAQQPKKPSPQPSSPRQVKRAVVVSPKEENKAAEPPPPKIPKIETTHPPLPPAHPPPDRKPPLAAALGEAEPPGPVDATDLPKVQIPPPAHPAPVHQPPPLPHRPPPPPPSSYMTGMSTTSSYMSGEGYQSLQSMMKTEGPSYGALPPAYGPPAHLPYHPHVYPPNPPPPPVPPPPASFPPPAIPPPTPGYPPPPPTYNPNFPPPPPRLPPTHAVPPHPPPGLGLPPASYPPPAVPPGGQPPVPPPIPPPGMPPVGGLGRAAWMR

EPHA6 = EPHA6 (Homo sapiens (Human), UniProt Q9UF33); experiment: Kinome-wide profiling; assay type: biochemical; details: read-out: % Residual Activity (mean)
CDK7/cyclin H = CDK7/cyclin H (Homo sapiens (Human), UniProt P50613); experiment: Kinome-wide profiling; assay type: biochemical; details: read-out: % Residual Activity (mean)
CDK2/CYCLIN E = CDK2/CYCLIN E (Homo sapiens (Human), UniProt P24941); experiment: Kinome-wide profiling; assay type: biochemical; details: read-out: % Residual Activity (mean)
GSK3b = GSK3b (Homo sapiens (Human), UniProt P49841); experiment: Kinome-wide profiling; assay type: biochemical; details: read-out: % Residual Activity (mean)
CDK17/cyclin Y (PCTK2) = CDK17/cyclin Y (PCTK2) (Homo sapiens (Human), UniProt Q00537); experiment: Kinome-wide profiling; assay type: biochemical; details: read-out: % Residual Activity (mean)
TAOK3/JIK = TAOK3/JIK (Homo sapiens (Human), UniProt Q9H2K8); experiment: Kinome-wide profiling; assay type: biochemical; details: read-out: % Residual Activity (mean)
EPHB4 = EPHB4 (Homo sapiens (Human), UniProt P54760); experiment: Kinome-wide profiling; assay type: biochemical; details: read-out: % Residual Activity (mean)
AURORA C = AURORA C (Homo sapiens (Human), UniProt Q9UQB9); experiment: Kinome-wide profiling; assay type: biochemical; details: read-out: % Residual Activity (mean)
PAK3 = PAK3 (Homo sapiens (Human), UniProt O75914); experiment: Kinome-wide profiling; assay type: biochemical; details: read-out: % Residual Activity (mean)
FGFR3 = FGFR3 (Homo sapiens (Human), UniProt P22607); experiment: Kinome-wide profiling; assay type: biochemical; details: read-out: % Residual Activity (mean)
LCK2/ICK = LCK2/ICK (Homo sapiens (Human), UniProt Q9UPZ9); experiment: Kinome-wide profiling; assay type: biochemical; details: read-out: % Residual Activity (mean)
PKCb2 = PKCb2 (Homo sapiens (Human), UniProt P05771); experiment: Kinome-wide profiling; assay type: biochemical; details: read-out: % Residual Activity (mean)
SYK = SYK (Homo sapiens (Human), UniProt P43405); experiment: Kinome-wide profiling; assay type: biochemical; details: read-out: % Residual Activity (mean)
JNK3 = JNK3 (Homo sapiens (Human), UniProt P53779); experiment: Kinome-wide profiling; assay type: biochemical; details: read-out: % Residual Activity (mean)
FGR = FGR (Homo sapiens (Human), UniProt P09769); experiment: Kinome-wide profiling; assay type: biochemical; details: read-out: % Residual Activity (mean)
IGF1R = IGF1R (Homo sapiens (Human), UniProt P08069); experiment: Kinome-wide profiling; assay type: biochemical; details: read-out: % Residual Activity (mean)
Sequence of IGF1R (P08069 31-1367): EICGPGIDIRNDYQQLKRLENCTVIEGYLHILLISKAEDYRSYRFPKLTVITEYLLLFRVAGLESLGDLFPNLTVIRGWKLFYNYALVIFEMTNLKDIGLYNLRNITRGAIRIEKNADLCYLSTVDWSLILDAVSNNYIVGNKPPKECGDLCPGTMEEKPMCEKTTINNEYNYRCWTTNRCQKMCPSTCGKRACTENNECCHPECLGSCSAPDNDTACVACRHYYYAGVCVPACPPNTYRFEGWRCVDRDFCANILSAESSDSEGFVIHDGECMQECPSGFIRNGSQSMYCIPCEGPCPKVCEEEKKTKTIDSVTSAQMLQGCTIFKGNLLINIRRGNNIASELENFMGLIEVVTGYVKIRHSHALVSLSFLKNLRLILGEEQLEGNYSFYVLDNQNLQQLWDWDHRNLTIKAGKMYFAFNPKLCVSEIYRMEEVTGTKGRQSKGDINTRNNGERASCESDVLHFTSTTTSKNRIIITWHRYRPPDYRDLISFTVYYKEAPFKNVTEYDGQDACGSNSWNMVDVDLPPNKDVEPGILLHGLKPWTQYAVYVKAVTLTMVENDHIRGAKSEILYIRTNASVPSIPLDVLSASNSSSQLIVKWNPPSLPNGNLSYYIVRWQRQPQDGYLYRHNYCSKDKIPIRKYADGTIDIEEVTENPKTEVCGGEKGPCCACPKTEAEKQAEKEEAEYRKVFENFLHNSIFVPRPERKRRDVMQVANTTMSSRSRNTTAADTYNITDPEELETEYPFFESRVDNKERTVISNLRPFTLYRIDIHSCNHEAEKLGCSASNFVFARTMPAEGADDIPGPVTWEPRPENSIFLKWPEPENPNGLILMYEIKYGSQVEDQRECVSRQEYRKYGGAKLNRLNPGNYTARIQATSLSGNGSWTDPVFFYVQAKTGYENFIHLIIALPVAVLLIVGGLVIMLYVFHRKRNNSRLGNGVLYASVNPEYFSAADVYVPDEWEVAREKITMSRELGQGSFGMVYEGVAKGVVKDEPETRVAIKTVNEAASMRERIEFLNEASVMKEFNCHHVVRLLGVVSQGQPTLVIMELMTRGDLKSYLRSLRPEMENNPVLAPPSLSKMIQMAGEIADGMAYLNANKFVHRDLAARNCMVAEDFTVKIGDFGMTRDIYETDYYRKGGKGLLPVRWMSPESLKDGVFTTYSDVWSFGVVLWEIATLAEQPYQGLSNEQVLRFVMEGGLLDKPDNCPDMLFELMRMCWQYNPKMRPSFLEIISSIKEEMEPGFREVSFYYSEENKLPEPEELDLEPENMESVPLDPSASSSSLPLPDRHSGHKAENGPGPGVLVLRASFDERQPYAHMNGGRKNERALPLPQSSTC

SNARK/NUAK2 = SNARK/NUAK2 (Homo sapiens (Human), UniProt Q9H093); experiment: Kinome-wide profiling; assay type: biochemical; details: read-out: % Residual Activity (mean)
c-Src = c-Src (Homo sapiens (Human), UniProt P12931); experiment: Kinome-wide profiling; assay type: biochemical; details: read-out: % Residual Activity (mean)
JNK2 = JNK2 (Homo sapiens (Human), UniProt P45984); experiment: Kinome-wide profiling; assay type: biochemical; details: read-out: % Residual Activity (mean)
TLK2 = TLK2 (Homo sapiens (Human), UniProt Q86UE8); experiment: Kinome-wide profiling; assay type: biochemical; details: read-out: % Residual Activity (mean)
LIMK2 = LIMK2 (Homo sapiens (Human), UniProt P53671); experiment: Kinome-wide profiling; assay type: biochemical; details: read-out: % Residual Activity (mean)
MSK1/RPS6KA5 = MSK1/RPS6KA5 (Homo sapiens (Human), UniProt O75582); experiment: Kinome-wide profiling; assay type: biochemical; details: read-out: % Residual Activity (mean)
TESK2 = TESK2 (Homo sapiens (Human), UniProt Q96S53); experiment: Kinome-wide profiling; assay type: biochemical; details: read-out: % Residual Activity (mean)
PKN1/PRK1 = PKN1/PRK1 (Homo sapiens (Human), UniProt Q16512); experiment: Kinome-wide profiling; assay type: biochemical; details: read-out: % Residual Activity (mean)
SSTK/TSSK6 = SSTK/TSSK6 (Homo sapiens (Human), UniProt Q9BXA6); experiment: Kinome-wide profiling; assay type: biochemical; details: read-out: % Residual Activity (mean)
Sequence of SSTK/TSSK6 (Q9BXA6 whole entry): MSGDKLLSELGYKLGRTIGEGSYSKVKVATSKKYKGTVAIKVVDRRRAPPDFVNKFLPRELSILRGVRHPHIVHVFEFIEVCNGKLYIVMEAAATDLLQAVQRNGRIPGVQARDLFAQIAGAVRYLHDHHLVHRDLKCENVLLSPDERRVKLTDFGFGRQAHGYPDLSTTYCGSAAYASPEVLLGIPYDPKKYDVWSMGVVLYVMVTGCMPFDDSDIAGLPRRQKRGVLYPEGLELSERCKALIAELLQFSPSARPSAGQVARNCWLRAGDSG

DDR2 = DDR2 (Homo sapiens (Human), UniProt Q16832); experiment: Kinome-wide profiling; assay type: biochemical; details: read-out: % Residual Activity (mean)
KSR2 = KSR2 (Homo sapiens (Human), UniProt Q6VAB6); experiment: Kinome-wide profiling; assay type: biochemical; details: read-out: % Residual Activity (mean)
Sequence of KSR2 (Q6VAB6 whole entry): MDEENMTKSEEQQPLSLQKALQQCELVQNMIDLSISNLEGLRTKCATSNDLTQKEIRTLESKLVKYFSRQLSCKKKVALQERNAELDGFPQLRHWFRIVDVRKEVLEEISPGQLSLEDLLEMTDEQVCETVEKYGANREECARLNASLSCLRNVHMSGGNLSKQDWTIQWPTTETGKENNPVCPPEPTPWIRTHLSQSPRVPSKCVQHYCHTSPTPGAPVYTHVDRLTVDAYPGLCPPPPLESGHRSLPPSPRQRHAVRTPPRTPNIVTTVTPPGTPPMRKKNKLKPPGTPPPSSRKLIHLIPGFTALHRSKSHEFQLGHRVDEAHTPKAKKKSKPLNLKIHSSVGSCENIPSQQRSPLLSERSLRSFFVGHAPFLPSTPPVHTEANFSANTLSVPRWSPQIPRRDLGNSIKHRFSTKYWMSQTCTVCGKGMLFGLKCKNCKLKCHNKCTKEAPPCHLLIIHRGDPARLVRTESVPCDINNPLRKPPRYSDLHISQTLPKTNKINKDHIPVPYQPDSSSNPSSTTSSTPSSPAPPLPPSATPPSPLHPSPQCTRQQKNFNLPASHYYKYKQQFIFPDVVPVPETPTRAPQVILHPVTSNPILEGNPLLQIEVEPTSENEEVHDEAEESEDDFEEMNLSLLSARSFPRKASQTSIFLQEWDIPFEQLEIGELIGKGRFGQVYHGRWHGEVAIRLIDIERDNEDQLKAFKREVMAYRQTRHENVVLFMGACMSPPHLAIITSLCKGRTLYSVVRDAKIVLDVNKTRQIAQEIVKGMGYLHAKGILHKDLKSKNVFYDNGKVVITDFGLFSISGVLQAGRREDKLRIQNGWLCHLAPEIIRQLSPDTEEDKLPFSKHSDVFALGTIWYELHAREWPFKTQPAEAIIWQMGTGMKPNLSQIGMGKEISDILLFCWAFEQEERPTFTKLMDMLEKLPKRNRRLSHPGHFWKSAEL

MNK1 = MNK1 (Homo sapiens (Human), UniProt Q9BUB5); experiment: Kinome-wide profiling; assay type: biochemical; details: read-out: % Residual Activity (mean)
ULK3 = ULK3 (Homo sapiens (Human), UniProt Q6PHR2); experiment: Kinome-wide profiling; assay type: biochemical; details: read-out: % Residual Activity (mean)
ROCK2 = ROCK2 (Homo sapiens (Human), UniProt O75116); experiment: Kinome-wide profiling; assay type: biochemical; details: read-out: % Residual Activity (mean)
Sequence of ROCK2 (O75116 whole entry): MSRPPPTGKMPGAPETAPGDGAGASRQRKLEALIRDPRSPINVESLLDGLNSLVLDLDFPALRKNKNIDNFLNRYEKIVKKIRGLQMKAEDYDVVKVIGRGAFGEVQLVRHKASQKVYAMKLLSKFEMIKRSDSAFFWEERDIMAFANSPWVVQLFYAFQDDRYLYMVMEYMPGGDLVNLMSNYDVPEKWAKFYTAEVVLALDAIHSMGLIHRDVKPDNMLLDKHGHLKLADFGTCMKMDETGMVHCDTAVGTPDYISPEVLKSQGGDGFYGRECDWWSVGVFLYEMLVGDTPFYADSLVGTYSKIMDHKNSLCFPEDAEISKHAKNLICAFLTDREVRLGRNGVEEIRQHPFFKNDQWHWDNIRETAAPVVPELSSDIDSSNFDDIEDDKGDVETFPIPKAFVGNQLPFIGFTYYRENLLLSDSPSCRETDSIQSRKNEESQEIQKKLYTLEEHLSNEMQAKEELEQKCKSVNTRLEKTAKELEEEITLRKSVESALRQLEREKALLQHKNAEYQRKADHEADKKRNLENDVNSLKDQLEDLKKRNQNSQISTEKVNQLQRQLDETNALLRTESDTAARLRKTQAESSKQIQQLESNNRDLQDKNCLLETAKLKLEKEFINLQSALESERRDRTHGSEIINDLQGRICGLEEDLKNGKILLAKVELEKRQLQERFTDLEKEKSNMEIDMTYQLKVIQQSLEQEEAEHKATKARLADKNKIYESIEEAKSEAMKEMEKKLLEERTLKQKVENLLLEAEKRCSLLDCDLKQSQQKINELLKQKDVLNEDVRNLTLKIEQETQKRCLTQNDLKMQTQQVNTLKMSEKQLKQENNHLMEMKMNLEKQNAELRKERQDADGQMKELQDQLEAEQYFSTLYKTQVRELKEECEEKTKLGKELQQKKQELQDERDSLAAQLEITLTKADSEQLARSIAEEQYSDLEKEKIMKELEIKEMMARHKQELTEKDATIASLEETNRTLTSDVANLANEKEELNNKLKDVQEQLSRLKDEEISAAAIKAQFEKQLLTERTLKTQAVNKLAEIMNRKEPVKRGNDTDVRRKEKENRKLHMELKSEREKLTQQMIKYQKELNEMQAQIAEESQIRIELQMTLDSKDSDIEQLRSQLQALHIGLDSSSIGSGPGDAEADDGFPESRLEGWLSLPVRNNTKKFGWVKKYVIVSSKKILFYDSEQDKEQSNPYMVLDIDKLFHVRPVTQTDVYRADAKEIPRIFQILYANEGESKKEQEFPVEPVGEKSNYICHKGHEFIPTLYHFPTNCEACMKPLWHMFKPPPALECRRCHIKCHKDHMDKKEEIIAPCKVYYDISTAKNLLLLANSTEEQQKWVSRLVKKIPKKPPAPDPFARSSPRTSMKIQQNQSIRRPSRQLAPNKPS

DMPK2 = DMPK2 (Homo sapiens (Human), UniProt Q6DT37); experiment: Kinome-wide profiling; assay type: biochemical; details: read-out: % Residual Activity (mean)
BRSK1 = BRSK1 (Homo sapiens (Human), UniProt Q8TDC3); experiment: Kinome-wide profiling; assay type: biochemical; details: read-out: % Residual Activity (mean)
ROCK1 = ROCK1 (Homo sapiens (Human), UniProt Q13464); experiment: Kinome-wide profiling; assay type: biochemical; details: read-out: % Residual Activity (mean)
TAK1 = TAK1 (Homo sapiens (Human), UniProt O43318); experiment: Kinome-wide profiling; assay type: biochemical; details: read-out: % Residual Activity (mean)
PKG2/PRKG2 = PKG2/PRKG2 (Homo sapiens (Human), UniProt Q13237); experiment: Kinome-wide profiling; assay type: biochemical; details: read-out: % Residual Activity (mean)
MEK2 = MEK2 (Homo sapiens (Human), UniProt P36507); experiment: Kinome-wide profiling; assay type: biochemical; details: read-out: % Residual Activity (mean)

SMILES: CCn1cnc2c(NCc3ccc(-c4ccccn4)nc3)nc(-c3ccc(N)nc3)nc21 [Example 53, N-([2,2′-bipyridin]-5-ylmethyl)-2-(6-aminopyridin-3-yl)-9-ethyl-9H-purin-6-amine]
- Pol II CTD (Ser2) phosphorylation [1]: inhibited Pol II CTD (Ser2) phosphorylation
- Pol II CTD (Ser2) phosphorylation ([1]; listed as Compound 53): strong dose-dependent suppression of Pol II phosphorylation
- remaining activity at 10 µM (CDK9/cyclin K): 1.07%
- remaining activity at 10 µM (EPHA6): 3.04%
- remaining activity at 10 µM (CDK7/cyclin H): 3.81%
- remaining activity at 10 µM (CDK2/CYCLIN E): 4.01%
- remaining activity at 10 µM (GSK3b): 5.76%
- remaining activity at 10 µM (CDK17/cyclin Y (PCTK2)): 7.25%
- remaining activity at 10 µM (TAOK3/JIK): 23.1%
- remaining activity at 10 µM (EPHB4): 23.2%
- remaining activity at 10 µM (AURORA C): 25.5%
- remaining activity at 10 µM (PAK3): 29.1%
- remaining activity at 10 µM (FGFR3): 30.6%
- remaining activity at 10 µM (LCK2/ICK): 39.6%
- remaining activity at 10 µM (PKCb2): 39.6%
- remaining activity at 10 µM (SYK): 48.4%
- remaining activity at 10 µM (JNK3): 48.7%
- remaining activity at 10 µM (FGR): 54.6%
- remaining activity at 10 µM (IGF1R): 58%
- remaining activity at 10 µM (SNARK/NUAK2): 59%
- remaining activity at 10 µM (c-Src): 60.1%
- remaining activity at 10 µM (JNK2): 61.7%
- remaining activity at 10 µM (TLK2): 72.2%
- remaining activity at 10 µM (LIMK2): 76.5%
- remaining activity at 10 µM (MSK1/RPS6KA5): 80.5%
- remaining activity at 10 µM (TESK2): 83.7%
- remaining activity at 10 µM (PKN1/PRK1): 85.4%
- remaining activity at 10 µM (SSTK/TSSK6): 86.9%
- remaining activity at 10 µM (DDR2): 87.2%
- remaining activity at 10 µM (KSR2): 88.4%
- remaining activity at 10 µM (MNK1): 89.2%
- remaining activity at 10 µM (ULK3): 91.8%
- remaining activity at 10 µM (ROCK2): 92.2%
- remaining activity at 10 µM (DMPK2): 92.4%
- remaining activity at 10 µM (BRSK1): 92.8%
- remaining activity at 10 µM (ROCK1): 97.2%
- remaining activity at 10 µM (TAK1): 98.2%
- remaining activity at 10 µM (PKG2/PRKG2): 99.5%
- remaining activity at 10 µM (MEK2): 176%
